Source: patent US20260049092A1, “ANTIBACTERIAL COMPOUNDS” (Blacksmith Medicines, Inc., priority 2022, published 2026)
≈ marks a conversion by molar mass, not a printed value. Where two headings read alike, the source gives them in different places.

How the values were obtained:
Assay in all cases: Bacterial susceptibility testing (MIC, broth microdilution)
Assay type in all cases: cell-based
[1] = tested on: P. aeruginosa PAO1; settings: Pseudomonas aeruginosa
Method in brief: (§1)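 CLSI broth microdilution was run in cation-adjusted Mueller-Hinton broth with an inoculum of 3×10^5–7×10^5 CFU/mL and 2-fold compound dilutions. Plates were incubated in ambient air at 35° C for 18-24 h. MIC was the lowest concentration preventing visible growth (OD600 nm<0.05).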

[2] = tested on: K. pneumoniae ATCC13883; settings: Klebsiella pneumoniae
Method in brief: as §1

[3] = tested on: P. aeruginosa ATCC27853; settings: Pseudomonas aeruginosa
Method in brief: as §1

[4] = tested on: E. coli ATCC25922; settings: Escherichia coli
Method in brief: as §1

[5] = PAO1, read-out: P. aeruginosa PAO1 MIC
[6] = ATCC13883, read-out: K. pneumoniae ATCC13883 MIC
[7] = ATCC27853, read-out: P. aeruginosa ATCC27853 MIC
[8] = ATCC25922, read-out: E. coli ATCC25922 MIC
[9] = PAO1, broth microdilution, cation adjusted Mueller-Hinton Broth, 35° C., 18-24 h, read-out: P. aeruginosa PAO1 MIC
[10] = ATCC13883, broth microdilution, cation adjusted Mueller-Hinton Broth, 35° C., 18-24 h, read-out: K. pneumoniae ATCC13883 MIC
[11] = ATCC27853, broth microdilution, cation adjusted Mueller-Hinton Broth, 35° C., 18-24 h, read-out: P. aeruginosa ATCC27853 MIC
[12] = ATCC25922, broth microdilution, cation adjusted Mueller-Hinton Broth, 35° C., 18-24 h, read-out: E. coli ATCC25922 MIC

MIC [1, 9] [µg/mL]	MIC [2, 10] [µg/mL]	MIC [3, 11] [µg/mL]	MIC [4, 12] [µg/mL]	SMILES	MIC [1, 5] [µg/mL]	MIC [2, 6] [µg/mL]	MIC [3, 7] [µg/mL]	MIC [4, 8] [µg/mL]
				C[C@H](O)c1nccn1[C@@H](C#Cc1ccc(-c2ccc(OC3CN(C(=O)CO)C3)cc2)cc1)CO [Compound 91, 2-hydroxy-1-(3-((4′-((S)-4-hydroxy-3-(2-((S)-1-hydroxyethyl)-1H-imidazol-1-yl)but-1-yn-1-yl)-[1,1′-biphenyl]-4-yl)oxy)azetidin-1-yl)ethan-1-one]	2 (≈ 4.33 µM)	4 (≈ 8.67 µM)	4 (≈ 8.67 µM)	2 (≈ 4.33 µM)
				C[C@H](O)c1nccn1[C@@H](C#Cc1ccc(-c2ccc(OC3CN(CC#N)C3)cc2)cc1)CO [Compound 92, 2-(3-((4′-((S)-4-hydroxy-3-(2-((S)-1-hydroxyethyl)-1H-imidazol-1-yl)but-1-yn-1-yl)-[1,1′-biphenyl]-4-yl)oxy)azetidin-1-yl)acetonitrile]	3 (≈ 6.78 µM)	1.5 (≈ 3.39 µM)	6 (≈ 13.6 µM)	0.75 (≈ 1.69 µM)
				C[C@H](O)c1nccn1[C@@H](C#Cc1ccc(-c2ccc(OC3CN(CCC#N)C3)cc2)cc1)CO [Compound 93, 3-(3-((4′-((S)-4-hydroxy-3-(2-((S)-1-hydroxyethyl)-1H-imidazol-1-yl)but-1-yn-1-yl)-[1,1′-biphenyl]-4-yl)oxy)azetidin-1-yl)propanenitrile]	2 (≈ 4.38 µM)	1 (≈ 2.19 µM)	4 (≈ 8.76 µM)	0.5 (≈ 1.1 µM)
				C[C@H](O)c1nccn1[C@@H](C#Cc1ccc(-c2ccc(OC3CN(C(N)=O)C3)cc2)cc1)CO [Compound 94, 3-((4′-((S)-4-hydroxy-3-(2-((S)-1-hydroxyethyl)-1H-imidazol-1-yl)but-1-yn-1-yl)-[1,1′-biphenyl]-4-yl)oxy)azetidine-1-carboxamide]	2 (≈ 4.48 µM)	4 (≈ 8.96 µM)	2 (≈ 4.48 µM)	1 (≈ 2.24 µM)
				C[C@H](O)c1nccn1[C@@H](C#Cc1ccc(-c2ccc(OC3CN(C(=O)N(C)C)C3)cc2)cc1)CO [Compound 95, 3-((4′-((S)-4-hydroxy-3-(2-((S)-1-hydroxyethyl)-1H-imidazol-1-yl)but-1-yn-1-yl)-[1,1′-biphenyl]-4-yl)oxy)-N,N-dimethylazetidine-1-carboxamide]	2 (≈ 4.21 µM)	2 (≈ 4.21 µM)	4 (≈ 8.43 µM)	0.5 (≈ 1.05 µM)
				C[C@H](O)c1nccn1[C@@H](C#Cc1ccc(-c2ccc(OC3CN(C(=O)N4CCOCC4)C3)cc2)cc1)CO [Compound 96, (3-((4′-((S)-4-hydroxy-3-(2-((S)-1-hydroxyethyl)-1H-imidazol-1-yl)but-1-yn-1-yl)-[1,1′-biphenyl]-4-yl)oxy)azetidin-1-yl)(morpholino)methanone]	8 (≈ 15.5 µM)	8 (≈ 15.5 µM)	8 (≈ 15.5 µM)	2 (≈ 3.87 µM)
				C[C@H](O)c1nccn1[C@@H](C#Cc1ccc(-c2ccc(OC3CN(c4nccn4C)C3)cc2)cc1)CO [Compound 98, (S)-2-(2-((S)-1-hydroxyethyl)-1H-imidazol-1-yl)-4-(4′-((1-(1-methyl-1H-imidazol-2-yl)azetidin-3-yl)oxy)-[1,1′-biphenyl]-4-yl)but-3-yn-1-ol]	4 (≈ 8.27 µM)	2 (≈ 4.14 µM)	8 (≈ 16.5 µM)	0.5 (≈ 1.03 µM)
> 32	> 32	> 32	0.38 (≈ 0.981 µM)	C[C@H](O)c1nccn1[C@@H](C#Cc1ccc(-c2ccc(N3CCC3)cc2)cc1)CO [Compound 108, (S)-4-(4′-(azetidin-1-yl)-[1,1′-biphenyl]-4-yl)-2-(2-((S)-1-hydroxyethyl)-1H-imidazol-1-yl)but-3-yn-1-ol]				
> 32	1.2 (≈ 2.87 µM)	> 32	0.38 (≈ 0.91 µM)	COC1CN(c2ccc(-c3ccc(C#C[C@@H](CO)n4ccnc4[C@H](C)O)cc3)cc2)C1 [Compound 110, (S)-2-(2-((S)-1-hydroxyethyl)-1H-imidazol-1-yl)-4-(4′-(3-methoxyazetidin-1-yl)-[1,1′-biphenyl]-4-yl)but-3-yn-1-ol]				
1.5 (≈ 3.6 µM)	0.5 (≈ 1.2 µM)	2 (≈ 4.8 µM)	0.25 (≈ 0.6 µM)	C[C@H](O)c1nccn1[C@@H](C#Cc1ccc(-c2ccc(C3CC(C)(O)C3)cc2)cc1)CO (stereo partly drawn) [Compound 111, 3-(4′-((S)-4-hydroxy-3-(2-((S)-1-hydroxyethyl)-1H-imidazol-1-yl)but-1-yn-1-yl)-[1,1′-biphenyl]-4-yl)-1-methylcyclobutan-1-ol]				
> 32	> 32	> 32	> 32	C[C@H](O)c1nccn1[C@@H](C#Cc1ccc(-c2ccn(C)c(=O)c2)cc1)CO [Compound 112, 4-(4-((S)-4-hydroxy-3-(2-((S)-1-hydroxyethyl)-1H-imidazol-1-yl)but-1-yn-1-yl)phenyl)-1-methylpyridin-2(1H)-one]				
2 (≈ 5.15 µM)	1 (≈ 2.57 µM)	4 (≈ 10.3 µM)	0.25 (≈ 0.644 µM)	C[C@H](O)c1nccn1[C@@H](C#Cc1ccc(-c2ccc(C3COC3)cc2)cc1)CO [Compound 128, (S)-2-(2-((S)-1-hydroxyethyl)-1H-imidazol-1-yl)-4-(4′-(oxetan-3-yl)-[1,1′-biphenyl]-4-yl)but-3-yn-1-ol]				
2 (≈ 4.78 µM)	0.5 (≈ 1.19 µM)	4 (≈ 9.56 µM)	0.25 (≈ 0.597 µM)	C[C@H](O)c1nccn1[C@@H](C#Cc1ccc(-c2ccc(OC3(C)COC3)cc2)cc1)CO [Compound 136, (S)-2-(2-((S)-1-hydroxyethyl)-1H-imidazol-1-yl)-4-(4′-((3-methyloxetan-3-yl)oxy)-[1,1′-biphenyl]-4-yl)but-3-yn-1-ol]				
4 (≈ 10.6 µM)	2 (≈ 5.31 µM)	16 (≈ 42.5 µM)	1 (≈ 2.66 µM)	C[C@H](O)c1nccn1[C@@H](C#Cc1ccc(-c2ccc([C@@H](C)O)cc2)cc1)CO [Compound 138, (S)-2-(2-((S)-1-hydroxyethyl)-1H-imidazol-1-yl)-4-(4′-((R)-1-hydroxyethyl)-[1,1′-biphenyl]-4-yl)but-3-yn-1-ol]				
1 (≈ 2.33 µM)	1 (≈ 2.33 µM)	4 (≈ 9.31 µM)	0.5 (≈ 1.16 µM)	CC(=O)N1CC(c2ccc(-c3ccc(C#C[C@@H](CO)n4ccnc4[C@H](C)O)cc3)cc2)C1 [Compound 139, 1-(3-(4′-((S)-4-hydroxy-3-(2-((S)-1-hydroxyethyl)-1H-imidazol-1-yl)but-1-yn-1-yl)-[1,1′-biphenyl]-4-yl)azetidin-1-yl)ethan-1-one]				
2 (≈ 4.54 µM)	0.5 (≈ 1.13 µM)	4 (≈ 9.08 µM)	0.25 (≈ 0.567 µM)	C[C@H](O)c1nccn1[C@@H](C#Cc1ccc(-c2ccc(C3CN(CCC#N)C3)cc2)cc1)CO [Compound 140, 3-(3-(4′-((S)-4-hydroxy-3-(2-((S)-1-hydroxyethyl)-1H-imidazol-1-yl)but-1-yn-1-yl)-[1,1′-biphenyl]-4-yl)azetidin-1-yl)propanenitrile]				
